From ChEMBL document CHEMBL1139686, “Structure-based design, synthesis, and SAR evaluation of a new series of 8-hydroxyquinolines as HIF-1alpha prolyl hydroxylase inhibitors” (Bioorg Med Chem Lett, 2006)

Target: Egl nine homolog 1 (Homo sapiens, UniProt Q9GZT9)
Assay: Inhibition of human EGLN1
Settings: not given

Chain of Egl nine homolog 1 (Q9GZT9 whole entry): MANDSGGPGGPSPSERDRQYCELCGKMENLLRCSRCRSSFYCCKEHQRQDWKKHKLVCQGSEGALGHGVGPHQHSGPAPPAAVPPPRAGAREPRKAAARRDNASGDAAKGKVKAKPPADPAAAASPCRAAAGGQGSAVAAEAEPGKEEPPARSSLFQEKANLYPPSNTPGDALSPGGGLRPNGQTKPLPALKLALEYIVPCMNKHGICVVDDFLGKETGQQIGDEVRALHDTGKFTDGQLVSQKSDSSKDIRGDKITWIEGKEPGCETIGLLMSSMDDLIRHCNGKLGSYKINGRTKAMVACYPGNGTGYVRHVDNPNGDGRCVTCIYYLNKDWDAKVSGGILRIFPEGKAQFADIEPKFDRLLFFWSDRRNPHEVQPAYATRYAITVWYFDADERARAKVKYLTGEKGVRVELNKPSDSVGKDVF

IC50 [nM] | Compound
> 100000 | O=C(O)c1ccc2cccnc2c1O

Tested on: HEK293
Assay: Induction of VEGF in HEK293 cells by ELISA
Settings: Homo sapiens

Compound | EC50 [nM]
O=C(NCc1ccccc1)c1ccc2cccnc2c1O | 890
O=C(Nc1ccccc1)c1ccc2cccnc2c1O | 630
O=C(Nc1cccnc1)c1ccc2cccnc2c1O | 1900
COC(=O)c1ccc(NC(=O)c2ccc3cccnc3c2O)cc1 | > 100000
N#Cc1cccc(NC(=O)c2ccc3cccnc3c2O)c1 | 420
Cc1cc(F)cc(NC(=O)c2ccc3cccnc3c2O)c1 | 890
COc1ccc(CNC(=O)c2ccc3cccnc3c2O)cc1 | 620
O=C(NCc1ccc(Cl)cc1)c1ccc2cccnc2c1O | 3100
O=C(Nc1ccc(C(F)(F)F)cc1)c1ccc2cccnc2c1O | > 100000
N#Cc1ccc(NC(=O)c2ccc3cccnc3c2O)cc1 | 140
O=C(NCCc1ccccc1)c1ccc2cccnc2c1O | 580
COc1cc(NC(=O)c2ccc3cccnc3c2O)cc(OC)c1 | 3200
N#CCNC(=O)c1ccc2cccnc2c1O | 4100
O=C(O)CNC(=O)c1ccc2cccnc2c1O | > 100000
